Data taken from patent US20220233743A1, “WOUND CLOSURE ENHANCEMENT METHODS AND MATERIALS VIA MANIPULATION OR AUGMENTATION OF LIPIN-1” (Board of Supervisors of Louisiana State University and …, priority 2019, published 2022).

Key:
Format in all cases: cell-based, mouse
BMDMs [1] = experiment: Mitochondrial bioenergetics, Seahorse OCR after IL-4
Experimental: BMDMs collected from lipin-1^mEnzyKO, lipin-1^mKO, and littermate control mice were seeded at a density of 150,000 cells per well on XF24 cell culture microplates and allowed to incubate for 4 h. Experiments were conducted in XF assay medium containing 25 mM glucose, 2 mM 1-glutamine, and 1 mM sodium pyruvate and analyzed using a Seahorse XFe 24 extracellular flux analyzer (Agilent Technologies). Where indicated, the following were injected: ATP-synthesis inhibitor oligomycin (Oligo; 1 μM), carbonyl cyanide 4-(trifluoromethoxy)phenylhydrazone (FCCP) (2 μM) to uncouple ATP synthesis, rotenone (100 nM) to block complex I, and antimycin A (1 μM) (Sigma-Aldrich) to block complex III. Oxygen consumption rate (OCR) was analyzed using Wave Desktop software (Agilent Technologies).
IL-4 stimulation polarizes macrophages toward a proresolving macrophage and elicits increased (3-oxidation and oxidative phosphorylation. In hepatocytes and skeletal muscle cells, lipin-1 promotes β-oxidation and oxidative phosphorylation. The inventors wanted to investigate if lipin-1 promoted oxidative phosphorylation in macrophages in response to IL-4. The inventors used BMDMs from lipin-1^mEnzyKO (EKO), lipin-1^mKO (KO), and littermate controls (wild type [WT]) to determine the contribution of the enzymatic activity and infer the contribution of the transcriptional coregulatory activity toward induction of oxidative phosphorylation. BMDMs from EKO, KO, and WT mice were stimulated with 40 ng/ml IL-4 for 4 h, and cellular bioenergetics were analyzed by Seahorse extracellular flux analyzer (Agilent Technologies). There were no differences in respiration between unstimulated WT and EKO macrophages (FIGS. 1 and 3). […] The inventors next tested if lipin-1 transcriptional coregulatory activity contributes to oxidative metabolism in macrophages. WT and lipin-1 KO macrophages were stimulated with IL-4 for 4 h, and cellular bioenergetics were analyzed. There was no difference in respiration between unstimulated WT and lipin-1 KO BMDMs (FIGS. 4 and 6).

BMDMs [2] = experiment: IL-4 mediated wound-healing gene expression, qRT-PCR; conditions: 20 ng/ml IL-4 for 4 h
Experimental: Bone marrow-derived macrophages were treated with IL-4 (R&D Biosystems, 404-ML-050) for 4 h and mRNA was extracted from the cultured cells using RNeasy Mini Kit (Qiagen—74106) as per manufacturer's instructions. cDNA template was generated using qScript cDNA SuperMix (Quantabio, 95048). qRT-PCR was performed in a Biorad iCycler with SsoAdvanced Universal SYBER Green SuperMix (Biorad, 172-5271). Primers (FIG. 42) were obtained from the Harvard primer bank database. Primer specificity was confirmed using primer BLAST and by verifying the presence of a single peak in melt curve analysis. Results were expressed as fold change relative to IL-4 treated WT cells by 2^−ΔΔCt method after normalizing with GAPDH.
Pro-inflammatory response in macrophages is influenced by lipin-1, but if lipin-1 contributes to wound healing responses by macrophages is unknown. The inventors have previously generated lipin-1^mEnzyKO mice that express a truncated lipin-1 protein lacking lipin-1 enzymatic activity but retain transcriptional co-regulatory function in myeloid cells. […] BMDMs from lipin-1^mEnzyKO, lipin-1^mKO, and appropriate littermate controls were stimulated with 20 ng/ml of IL-4 for 4 h. mRNA was isolated and analyzed for the expression of several canonical wound-healing associated genes: Arg1, Socs2, Ccl17, Mannr, Il10, and Pparg. […]

BMDMs [3] = experiment: Phagocytosis assay with pHrodo green zymosan particles; conditions: IL-4 stimulated (20 ng/ml, 24 h) lipin-1mKO BMDMs vs wild type BMDMs
Experimental: Bone marrow-derived macrophages (5×10^5 cells) were cultured on sterile coverslips in culture wells and treated with 20 ng/ml IL-4 for 24 h. Culture medium was then replaced with DMEM, containing pHrodo™ green Zymosan A BioParticles® (Thermo Fisher Scientific, P35365) such that each well receives 0.1 mg zymosan particles. BMDMs were allowed to phagocytose for 1 h under dark incubation and then the assay was stopped by cold PBS wash. Cells seeded on coverslips were then fixed using 4% formaldehyde. Cells on cover slips were washed three times and then stained with DAPI slowfade (Invitrogen, S36938). Immunofluorescent images were taken using Olympus BX51 and evaluated using Image J (1.50a) analysis software. Phagocytic efficiency for each image was calculated by dividing the total number of fluorescent beads by the total number of nuclei in the fluorescent image, thus giving average number of beads per cell. Experiment was performed 3 times with 4 random images per group (n=12).
Macrophages with a wound healing phenotype can have increased phagocytic capabilities. The inventors investigated the ability of BMDMs to phagocytize zymosan beads. The inventors mock treated or IL-4 treated BMDMs from lipin-1^mKO or litter mate controls for 24 h. […] The inventors then imaged using fluorescent microscopy and quantified average number of particles per cell.

“IL-4: cytokine IL-4 (R&D Biosystems, 404-ML-050) used to stimulate macrophages; optional component of the claimed composition” was tested, and the “OCR in response to IL-4 stimulation” value (BMDMs [1]; EKO (lipin-1mEnzyKO) BMDMs, 40 ng/ml IL-4 for 4 h) was “equivalent increase in OCR”, the “OCR in response to IL-4 stimulation” value (BMDMs [1]; WT BMDMs, 40 ng/ml IL-4 for 4 h) was “increased OCR” and the “OCR in response to IL-4 stimulation” value (BMDMs [1]; lipin-1 KO BMDMs, IL-4 for 4 h) was “failed to increase OCR”. For the same substance, the “expression of IL-4 elicited genes” value (BMDMs [2]; lipin-1mEnzyKO BMDMs vs WT BMDMs) was “equivalent expression”, the “IL-4 elicited gene expression (Arg1, Socs2, Ccl17, Mannr, Il10, Pparg)” value (BMDMs [2]; lipin-1mKO BMDMs vs wild type or lipin-1mEnzyKO) was “significantly lower” and the “zymosan particles per cell” value (BMDMs [3]) was “fewer particles per cell”.
